Results from patent US20250361239A1, “PROTEIN DEGRADERS AND USES THEREOF” (ZHUHAI YUFAN BIOTECHNOLOGIES CO., LTD., priority 2022, published 2025).

Key:
Type in all cases: cell-based
[1] = tested on: HL60 cells; assay: HL60 cell killing experiment (CellTiter-Glo cell viability); details: Homo sapiens, HL-60, 48 h incubation, CTG luminescence
In short: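 Cells seeded at 5×10^4 cells/mL, dosed after 4 h at 37 °C, then grown for 48 h. CellTiter-Glo luminescence read at the time of dosing (G0) and after 48 h (G3). GI50 fitted from proliferation rate versus concentration.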

[2] = tested on: THP-1 cells; assay: THP-1 cell killing experiment (CellTiter-Glo cell viability); details: Homo sapiens, 48 h incubation, CTG luminescence
Experimental: (§1) THP-1 cell lines were purchased from ATCC (Cat #ATCC® TIB-202™), RPMI1640 media were purchased from ATCC (Cat #ATCC® 30-2001™), FBS was purchased from Gibco (Cat #10091148), celltiter-glo luminescent cell viability assay was purchased from promega (Cat #G7572), and 96-well plates were purchased from coming (Cat #3610).
(§2) The effect of compounds on the growth of THP-1 cells was determined by measuring cell viability and growth rate. Firstly, cells in the logarithmic growth phase were collected and centrifuged, and the culture supernatant was discarded. The centrifuged cells were resuspended in a fresh complete medium, and the cell density was adjusted to 5×10^4 cells/mL. The resuspended cells were inoculated into two identical opaque 96-well cell culture plates at 100 μL of cell suspension per well, and the cell culture plates were incubated in a cell incubator at 37° C. for 4 h. After 4 h, dilutions (20 μL) of compounds with different concentrations were added. After one of the cell plates was cooled to room temperature, 60 μL of CTG reagent was added, and the luminescence values were read on the instrument as G0. The other one was incubated in a cell incubator for 48 h. After 48 h, 60 μL of CTG reagent was added, and the luminescence values were read on the instrument as G3.
(§3) According to the corresponding proliferation rate and concentration of each gradient concentration well, a gradient curve of cell proliferation was fitted using XLFit software, and the GI50 values of compounds were calculated.

[3] = tested on: SU-DHL-2 cells; assay: SU-DHL-2 cell killing experiment (CellTiter-Glo cell viability); details: Homo sapiens, 48 h incubation, CTG luminescence
Experimental: as §1, with “SU-DHL-2” for “THP-1”, “CRL-2956™),” for “TIB-202™),”
as §2, with “SU-DHL-2” for “THP-1”
as §3

[4] = tested on: Hep3B cells; assay: Hep3B cell killing experiment (CellTiter-Glo cell viability); details: Homo sapiens, 48 h incubation, CTG luminescence
Experimental: as §1, with “Hep3B” for “THP-1”, “HB-8064™), EMEM” for “TIB-202™), RPMI1640”, “30-2003™),” for “30-2001™),”
The effect of compounds on the growth of Hep3B cells was determined by measuring cell viability and growth rate. Firstly, the cells were digested with pancreatin, and the digestion was then terminated with medium. The cells were centrifuged, and the supernatant was discarded. The centrifuged cells were resuspended in a fresh complete medium, and the cell density was adjusted to 5×10^4 cells/mL. The resuspended cells were inoculated into two identical opaque 96-well cell culture plates at 100 μL of cell suspension per well, and the cell culture plates were incubated in a cell incubator at 37° C. overnight. The next day, dilutions (20 μL) of compounds with different concentrations were added. After one of the cell plates was cooled to room temperature, 60 μL of CTG reagent was added. The luminescence values were read on the instrument as G0. The other one was incubated in a cell incubator for 48 h. After 48 h, 60 μL of CTG reagent was added, and the luminescence values were read on the instrument as G3.
as §3

[5] = tested on: Raji cells; assay: Raji cell killing experiment (CellTiter-Glo cell viability); details: Homo sapiens, 48 h incubation, CTG luminescence
Experimental: as §1, with “Raji” for “THP-1”, “CCL-86™),” for “TIB-202™),”
as §2, with “Raji” for “THP-1”
as §3

[6] = target: T1, GSPT1 (Homo sapiens, UniProt P15170+Q96SW2); assay: Degradation of GSPT1 by the compounds (HiBiT signal in GSPT1/HEK293 hibit cells); details: 6 h incubation, Nano Glo HiBiT Lytic Detection
T1 construct: host or cells: HEK293
In short: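 HEK293 cells with HiBiT-tagged GSPT1 seeded overnight, then treated with serial compound dilutions for 6 h at 37° C. Remaining GSPT1 measured by HiBiT lytic luminescence; DC50 from fitted degradation-concentration curve.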

[7] = tested on: Jurkat cells; assay: Jurkat cell killing experiment (CellTiter-Glo cell viability); details: Homo sapiens, 48 h incubation, CTG luminescence
Experimental: as §1, with “Jurkat” for “THP-1”, “TIB-152™),” for “TIB-202™),”
as §2, with “Jurkat” for “THP-1”
as §3

[8] = tested on: NCI-H929 cells; assay: NCI-H929 cell killing experiment (CellTiter-Glo cell viability); details: Homo sapiens, 48 h incubation, CTG luminescence
Experimental: as §1, with “NCI-H929” for “THP-1”, “CRL-9068™),” for “TIB-202™),”
as §2, with “2. Method The effect” for “The effect”, “growth of NCI-H929 cells was” for “growth of THP-1 cells was”
as §3

[9] = tested on: Toledo cells; assay: Toledo cell killing experiment (CellTiter-Glo cell viability); details: Homo sapiens, 48 h incubation, CTG luminescence
Experimental: as §1, with “Toledo” for “THP-1”, “CRL-2631™),” for “TIB-202™),”
as §2, with “Toledo” for “THP-1”
as §3

T1 sequence (P15170 whole entry): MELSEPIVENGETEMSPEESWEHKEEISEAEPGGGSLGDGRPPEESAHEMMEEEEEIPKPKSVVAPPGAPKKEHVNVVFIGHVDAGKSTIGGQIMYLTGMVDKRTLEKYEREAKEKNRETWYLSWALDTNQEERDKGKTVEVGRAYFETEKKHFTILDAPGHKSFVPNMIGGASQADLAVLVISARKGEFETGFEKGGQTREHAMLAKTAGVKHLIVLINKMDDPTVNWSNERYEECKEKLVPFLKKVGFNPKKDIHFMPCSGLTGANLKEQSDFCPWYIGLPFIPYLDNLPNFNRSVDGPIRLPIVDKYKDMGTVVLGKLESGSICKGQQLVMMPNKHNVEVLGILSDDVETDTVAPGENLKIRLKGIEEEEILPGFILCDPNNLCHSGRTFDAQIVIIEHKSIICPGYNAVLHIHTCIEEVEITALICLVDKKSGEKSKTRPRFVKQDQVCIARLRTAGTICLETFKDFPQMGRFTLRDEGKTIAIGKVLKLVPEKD
T1 sequence (Q96SW2 whole entry): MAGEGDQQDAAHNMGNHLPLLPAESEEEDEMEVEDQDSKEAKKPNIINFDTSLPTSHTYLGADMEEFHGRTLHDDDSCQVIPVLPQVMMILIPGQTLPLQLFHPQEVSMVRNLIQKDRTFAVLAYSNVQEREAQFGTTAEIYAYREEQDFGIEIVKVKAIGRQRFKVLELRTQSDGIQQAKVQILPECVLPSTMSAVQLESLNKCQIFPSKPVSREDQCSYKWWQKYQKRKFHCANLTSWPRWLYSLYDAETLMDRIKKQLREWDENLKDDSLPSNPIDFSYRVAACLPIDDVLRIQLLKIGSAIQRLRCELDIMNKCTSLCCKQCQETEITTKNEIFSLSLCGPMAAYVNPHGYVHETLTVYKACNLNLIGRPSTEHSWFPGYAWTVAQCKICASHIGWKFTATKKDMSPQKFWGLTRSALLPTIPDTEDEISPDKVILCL
T1 sequence (Q16531 whole entry partner): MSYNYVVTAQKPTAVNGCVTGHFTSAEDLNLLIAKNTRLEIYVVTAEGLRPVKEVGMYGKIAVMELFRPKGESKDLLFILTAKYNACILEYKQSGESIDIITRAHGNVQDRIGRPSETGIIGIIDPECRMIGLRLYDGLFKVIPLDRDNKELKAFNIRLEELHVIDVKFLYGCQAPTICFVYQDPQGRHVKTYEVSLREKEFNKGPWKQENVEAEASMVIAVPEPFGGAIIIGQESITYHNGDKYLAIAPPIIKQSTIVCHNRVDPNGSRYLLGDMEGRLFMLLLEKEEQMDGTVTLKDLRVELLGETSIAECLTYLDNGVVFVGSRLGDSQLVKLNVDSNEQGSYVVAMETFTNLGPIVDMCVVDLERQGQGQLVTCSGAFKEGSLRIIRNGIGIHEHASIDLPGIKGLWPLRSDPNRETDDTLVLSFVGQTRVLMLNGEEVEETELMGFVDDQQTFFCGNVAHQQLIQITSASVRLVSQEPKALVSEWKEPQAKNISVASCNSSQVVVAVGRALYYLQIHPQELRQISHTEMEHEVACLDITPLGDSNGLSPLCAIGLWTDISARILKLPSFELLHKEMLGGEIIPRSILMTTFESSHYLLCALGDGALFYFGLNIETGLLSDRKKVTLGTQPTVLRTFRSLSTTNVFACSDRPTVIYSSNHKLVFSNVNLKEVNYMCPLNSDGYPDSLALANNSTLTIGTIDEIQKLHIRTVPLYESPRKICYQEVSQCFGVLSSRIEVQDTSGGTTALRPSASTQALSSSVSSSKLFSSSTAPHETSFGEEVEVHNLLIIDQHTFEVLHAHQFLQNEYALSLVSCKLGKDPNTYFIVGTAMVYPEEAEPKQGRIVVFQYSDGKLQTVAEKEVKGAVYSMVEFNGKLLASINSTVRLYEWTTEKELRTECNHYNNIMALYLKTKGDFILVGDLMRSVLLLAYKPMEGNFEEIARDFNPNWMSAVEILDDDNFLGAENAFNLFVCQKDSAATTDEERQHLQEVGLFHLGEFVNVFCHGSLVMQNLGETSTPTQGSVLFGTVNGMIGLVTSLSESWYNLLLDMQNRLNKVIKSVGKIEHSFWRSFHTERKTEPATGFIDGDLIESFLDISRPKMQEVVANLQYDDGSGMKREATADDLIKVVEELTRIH

COc1ccc2nc([C@H]3CC[C@H](C(=O)Nc4cccc(CNc5cccc6c5C(=O)N(C5CCC(=O)NC5=O)C6=O)c4)CC3)sc2n1 (stereo partly shown) [Example 97]
GI50 [1]: < 100 nM
GI50 [2]: 2.58 nM
GI50 [3]: 1.51 nM
GI50 [4]: 0.46 nM
GI50 [5]: 3.43 nM
DC50 [6]: < 100 nM

O=C1CCC(N2C(=O)c3cccc(NCc4cccc(C(=O)NC5CCC(c6nc7ccccc7o6)CC5)c4)c3C2=O)C(=O)N1 (stereo not shown) [Example 16]
GI50 [1]: < 100 nM
GI50 [7]: 4.07 nM
GI50 [4]: 1.36 nM
GI50 [8]: 0.96 nM
GI50 [5]: 362 nM
DC50 [6]: < 100 nM

COc1ccc2c(c1)nc([C@H]1CC[C@H](COc3cc(CNc4cccc5c4C(=O)N(C4CCC(=O)NC4=O)C5=O)ccn3)CC1)n2C (stereo partly shown) [Example 75]
GI50 [1]: < 100 nM
GI50 [7]: 0.4 nM
GI50 [3]: 0.93 nM
GI50 [9]: 0.45 nM
GI50 [5]: 1.79 nM
DC50 [6]: < 100 nM

COc1ccc(CNc2cccc3c2C(=O)N(C2CCC(=O)NC2=O)C3=O)cc1C(=O)N[C@H]1CC[C@H](c2nc3ccncc3n2C)CC1 (stereo partly shown) [Example 89]
GI50 [1]: < 100 nM
GI50 [2]: 5.65 nM
GI50 [7]: 0.5 nM
GI50 [3]: 1.42 nM
DC50 [6]: < 100 nM

COc1ccc2c(c1)nc([C@H]1CC[C@H](NC(=O)c3cc(CNc4cccc5c4C(=O)N(C4CCC(=O)NC4=O)C5=O)ccn3)CC1)n2C (stereo partly shown) [Example 90]
GI50 [1]: < 100 nM
GI50 [2]: 4.14 nM
GI50 [8]: 0.93 nM
GI50 [5]: 5.88 nM
DC50 [6]: < 100 nM
